Experimental data reported in US20230085307A1, “PYRIDAZINONE COMPOUND AND HERBICIDE” (NISSAN CHEMICAL CORPORATION, priority 2019, published 2023).

How the values were obtained:
[1] = test system: Italian ryegrass; experiment: Test Example 5: herbicidal effect by foliage application, plastic box (Table 20, symbol K); type: in vivo, Italian ryegrass (Lolium multiflorum); conditions: foliage application, three weeks after application
Method in brief: (§1)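 Foliar spray test: emulsion formulation diluted in water to a set application rate, sprayed onto 14-day-old plants raised in diluvial soil at 25° C to 30° C under glass. Both herbicidal effect and crop effect rated visually three weeks later.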

[2] = test system: barnyard grass; experiment: Test Example 3: herbicidal effect by foliage application, Wagner pot (Table 18, symbol H); type: in vivo, barnyard grass (Echinochloa crus-galli)
Method in brief: (§2)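 Plants were sown in alluvial soil held under 0.1–0.5 cm standing water and grown 14 days in a greenhouse at 25–30 °C. An emulsifiable formulation, water-diluted to the set dose, was then sprayed onto the foliage, and effects were scored three weeks later using previously defined criteria.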

[3] = test system: Chinese sprangletop; experiment: Test Example 3: herbicidal effect by foliage application, Wagner pot (Table 18, symbol D); type: in vivo, chinese sprangletop (Leptochloa chinensis)
Method in brief: as §2

[4] = test system: windgrass; experiment: Test Example 5: herbicidal effect by foliage application, plastic box (Table 20, symbol L); type: in vivo, windgrass (Apera spica-venti); conditions: foliage application, three weeks after application
Method in brief: as §1

[5] = test system: velvetleaf; experiment: Test Example 5: herbicidal effect by foliage application, plastic box (Table 20, symbol M); type: in vivo, velvetleaf (Abutilon theophrasti); conditions: foliage application, three weeks after application
Method in brief: as §1

[6] = test system: lambsquarters; experiment: Test Example 5: herbicidal effect by foliage application, plastic box (Table 20, symbol O); type: in vivo, lambsquarters (Chenopodium album); conditions: foliage application, three weeks after application
Method in brief: as §1

[7] = test system: false cleavers; experiment: Test Example 5: herbicidal effect by foliage application, plastic box (Table 20, symbol Q); type: in vivo, false cleavers (Galium spurium); conditions: foliage application, three weeks after application
Method in brief: as §1

[8] = test system: redroot pigweed; experiment: Test Example 5: herbicidal effect by foliage application, plastic box (Table 20, symbol N); type: in vivo, redroot pigweed (Amaranthus retroflexus); conditions: foliage application, three weeks after application
Method in brief: as §1

[9] = test system: barnyard grass; experiment: Test Example 5: herbicidal effect by foliage application, plastic box (Table 20, symbol H); type: in vivo, barnyard grass (Echinochloa crus-galli); conditions: foliage application, three weeks after application
Method in brief: as §1

[10] = test system: rice flat sedge; experiment: Test Example 3: herbicidal effect by foliage application, Wagner pot (Table 18, symbol E); type: in vivo, rice flat sedge (Cyperus iria)
Method in brief: as §2

[11] = test system: green foxtail; experiment: Test Example 5: herbicidal effect by foliage application, plastic box (Table 20, symbol G); type: in vivo, green foxtail (Setaria viridis); conditions: foliage application, three weeks after application
Method in brief: as §1

[12] = test system: chickweed; experiment: Test Example 5: herbicidal effect by foliage application, plastic box (Table 20, symbol P); type: in vivo, common chickweed (Stellaria media); conditions: foliage application, three weeks after application
Method in brief: as §1

[13] = test system: blackgrass; experiment: Test Example 5: herbicidal effect by foliage application, plastic box (Table 20, symbol J); type: in vivo, blackgrass (Alopecurus myosuroides); conditions: foliage application, three weeks after application
Method in brief: as §1

[14] = test system: persian speedwell; experiment: Test Example 5: herbicidal effect by foliage application, plastic box (Table 20, symbol R); type: in vivo, Persian speedwell (Veronica persica); conditions: foliage application, three weeks after application
Method in brief: as §1

[15] = test system: wild oat; experiment: Test Example 5: herbicidal effect by foliage application, plastic box (Table 20, symbol I); type: in vivo, wild oat (Avena fatua); conditions: foliage application, three weeks after application
Method in brief: as §1

[16] = test system: southern crabgrass; experiment: Test Example 5: herbicidal effect by foliage application, plastic box (Table 20, symbol F); type: in vivo, southern crabgrass (Digitaria ciliaris); conditions: foliage application, three weeks after application
Method in brief: as §1

Cc1nn(C)c(=O)c(-c2c(-c3ccccc3O)sc3ccccc23)c1O [1-009]
herbicidal effect grade, K: Italian ryegrass ([1]; 320 g/ha): 0 (Herbicidal rate of 5% or less (almost no effect)) | herbicidal effect on H (barnyard grass), rating 0-5 ([2]; 320 g/ha): 3 (Herbicidal rate of 40% or more and less than 70%) | herbicidal effect on D (Chinese sprangletop), rating 0-5 ([3]; 320 g/ha): 2 (Herbicidal rate of 20% or more and less than 40%) | herbicidal effect grade, L: windgrass ([4]; 320 g/ha): 0 (Herbicidal rate of 5% or less (almost no effect)) | herbicidal effect grade, M: velvetleaf ([5]; 320 g/ha): 0 (Herbicidal rate of 5% or less (almost no effect)) | herbicidal effect grade, O: lambsquarters ([6]; 320 g/ha): 0 (Herbicidal rate of 5% or less (almost no effect)) | herbicidal effect grade, Q: false cleavers ([7]; 320 g/ha): 0 (Herbicidal rate of 5% or less (almost no effect)) | herbicidal effect grade, N: redroot pigweed ([8]; 320 g/ha): 0 (Herbicidal rate of 5% or less (almost no effect)) | herbicidal effect grade, H: barnyard grass ([9]; 320 g/ha): 2 (Herbicidal rate of 20% or more and less than 40%) | herbicidal effect on E (rice flat sedge), rating 0-5 ([10]; 320 g/ha): 2 (Herbicidal rate of 20% or more and less than 40%) | herbicidal effect grade, G: green foxtail ([11]; 320 g/ha): 3 (Herbicidal rate of 40% or more and less than 70%) | herbicidal effect grade, P: chickweed ([12]; 320 g/ha): 4 (Herbicidal rate of 70% or more and less than 90%) | herbicidal effect grade, J: blackgrass ([13]; 320 g/ha): 0 (Herbicidal rate of 5% or less (almost no effect)) | herbicidal effect grade, R: persian speedwell ([14]; 320 g/ha): 4 (Herbicidal rate of 70% or more and less than 90%) | herbicidal effect grade, I: wild oat ([15]; 320 g/ha): 0 (Herbicidal rate of 5% or less (almost no effect)) | herbicidal effect grade, F: southern crabgrass ([16]; 320 g/ha): 3 (Herbicidal rate of 40% or more and less than 70%)

Cc1nn(C)c(=O)c(-c2c(-c3ccccc3Oc3ccccc3)sc3ccccc23)c1O [1-033]
herbicidal effect grade, K: Italian ryegrass ([1]; 320 g/ha): 0 (Herbicidal rate of 5% or less (almost no effect)) | herbicidal effect on H (barnyard grass), rating 0-5 ([2]; 320 g/ha): 1 (Herbicidal rate of 5% or more and less than 20%) | herbicidal effect on D (Chinese sprangletop), rating 0-5 ([3]; 320 g/ha): 0 (Herbicidal rate of 5% or less (almost no effect)) | herbicidal effect grade, L: windgrass ([4]; 320 g/ha): 0 (Herbicidal rate of 5% or less (almost no effect)) | herbicidal effect grade, M: velvetleaf ([5]; 320 g/ha): 0 (Herbicidal rate of 5% or less (almost no effect)) | herbicidal effect grade, O: lambsquarters ([6]; 320 g/ha): 0 (Herbicidal rate of 5% or less (almost no effect)) | herbicidal effect grade, Q: false cleavers ([7]; 320 g/ha): 4 (Herbicidal rate of 70% or more and less than 90%) | herbicidal effect grade, N: redroot pigweed ([8]; 320 g/ha): 0 (Herbicidal rate of 5% or less (almost no effect)) | herbicidal effect grade, H: barnyard grass ([9]; 320 g/ha): 2 (Herbicidal rate of 20% or more and less than 40%) | herbicidal effect on E (rice flat sedge), rating 0-5 ([10]; 320 g/ha): 1 (Herbicidal rate of 5% or more and less than 20%) | herbicidal effect grade, G: green foxtail ([11]; 320 g/ha): 0 (Herbicidal rate of 5% or less (almost no effect)) | herbicidal effect grade, P: chickweed ([12]; 320 g/ha): 1 (Herbicidal rate of 5% or more and less than 20%) | herbicidal effect grade, J: blackgrass ([13]; 320 g/ha): 0 (Herbicidal rate of 5% or less (almost no effect)) | herbicidal effect grade, R: persian speedwell ([14]; 320 g/ha): 3 (Herbicidal rate of 40% or more and less than 70%) | herbicidal effect grade, I: wild oat ([15]; 320 g/ha): 0 (Herbicidal rate of 5% or less (almost no effect)) | herbicidal effect grade, F: southern crabgrass ([16]; 320 g/ha): 3 (Herbicidal rate of 40% or more and less than 70%)

CCS(=O)(=O)c1ccccc1-c1sc2ccccc2c1-c1c(O)c(C)nn(C)c1=O [1-038]
herbicidal effect grade, K: Italian ryegrass ([1]; 123 g/ha): 0 (Herbicidal rate of 5% or less (almost no effect)) | herbicidal effect on H (barnyard grass), rating 0-5 ([2]; 123 g/ha): 0 (Herbicidal rate of 5% or less (almost no effect)) | herbicidal effect on D (Chinese sprangletop), rating 0-5 ([3]; 123 g/ha): 4 (Herbicidal rate of 70% or more and less than 90%) | herbicidal effect grade, L: windgrass ([4]; 123 g/ha): 0 (Herbicidal rate of 5% or less (almost no effect)) | herbicidal effect grade, M: velvetleaf ([5]; 123 g/ha): 0 (Herbicidal rate of 5% or less (almost no effect)) | herbicidal effect grade, O: lambsquarters ([6]; 123 g/ha): 0 (Herbicidal rate of 5% or less (almost no effect)) | herbicidal effect grade, Q: false cleavers ([7]; 123 g/ha): 3 (Herbicidal rate of 40% or more and less than 70%) | herbicidal effect grade, N: redroot pigweed ([8]; 123 g/ha): 0 (Herbicidal rate of 5% or less (almost no effect)) | herbicidal effect grade, H: barnyard grass ([9]; 123 g/ha): 0 (Herbicidal rate of 5% or less (almost no effect)) | herbicidal effect on E (rice flat sedge), rating 0-5 ([10]; 123 g/ha): 3 (Herbicidal rate of 40% or more and less than 70%) | herbicidal effect grade, G: green foxtail ([11]; 123 g/ha): 0 (Herbicidal rate of 5% or less (almost no effect)) | herbicidal effect grade, P: chickweed ([12]; 123 g/ha): 5 (Herbicidal rate of 90% or more (almost completely withered)) | herbicidal effect grade, J: blackgrass ([13]; 123 g/ha): 0 (Herbicidal rate of 5% or less (almost no effect)) | herbicidal effect grade, R: persian speedwell ([14]; 123 g/ha): 0 (Herbicidal rate of 5% or less (almost no effect)) | herbicidal effect grade, I: wild oat ([15]; 123 g/ha): 0 (Herbicidal rate of 5% or less (almost no effect)) | herbicidal effect grade, F: southern crabgrass ([16]; 123 g/ha): 0 (Herbicidal rate of 5% or less (almost no effect))

Cc1nn(C)c(=O)c(-c2c(-c3ccc(N(C)C)cc3)sc3ccccc23)c1O [1-039]
herbicidal effect grade, K: Italian ryegrass ([1]; 295 g/ha): 2 (Herbicidal rate of 20% or more and less than 40%) | herbicidal effect on H (barnyard grass), rating 0-5 ([2]; 295 g/ha): 3 (Herbicidal rate of 40% or more and less than 70%) | herbicidal effect on D (Chinese sprangletop), rating 0-5 ([3]; 295 g/ha): 1 (Herbicidal rate of 5% or more and less than 20%) | herbicidal effect grade, L: windgrass ([4]; 295 g/ha): 0 (Herbicidal rate of 5% or less (almost no effect)) | herbicidal effect grade, M: velvetleaf ([5]; 295 g/ha): 3 (Herbicidal rate of 40% or more and less than 70%) | herbicidal effect grade, O: lambsquarters ([6]; 295 g/ha): 4 (Herbicidal rate of 70% or more and less than 90%) | herbicidal effect grade, Q: false cleavers ([7]; 295 g/ha): 0 (Herbicidal rate of 5% or less (almost no effect)) | herbicidal effect grade, N: redroot pigweed ([8]; 295 g/ha): 5 (Herbicidal rate of 90% or more (almost completely withered)) | herbicidal effect grade, H: barnyard grass ([9]; 295 g/ha): 0 (Herbicidal rate of 5% or less (almost no effect)) | herbicidal effect on E (rice flat sedge), rating 0-5 ([10]; 295 g/ha): 3 (Herbicidal rate of 40% or more and less than 70%) | herbicidal effect grade, G: green foxtail ([11]; 295 g/ha): 4 (Herbicidal rate of 70% or more and less than 90%) | herbicidal effect grade, P: chickweed ([12]; 295 g/ha): 5 (Herbicidal rate of 90% or more (almost completely withered)) | herbicidal effect grade, J: blackgrass ([13]; 295 g/ha): 1 (Herbicidal rate of 5% or more and less than 20%) | herbicidal effect grade, R: persian speedwell ([14]; 295 g/ha): 5 (Herbicidal rate of 90% or more (almost completely withered)) | herbicidal effect grade, I: wild oat ([15]; 295 g/ha): 0 (Herbicidal rate of 5% or less (almost no effect)) | herbicidal effect grade, F: southern crabgrass ([16]; 295 g/ha): 3 (Herbicidal rate of 40% or more and less than 70%)

CCCC(=O)Oc1c(C)nn(C)c(=O)c1-c1c(-c2ccc(OC)cc2OC)sc2ccccc12 [1-071]
herbicidal effect grade, K: Italian ryegrass ([1]; 320 g/ha): 0 (Herbicidal rate of 5% or less (almost no effect)) | herbicidal effect on H (barnyard grass), rating 0-5 ([2]; 320 g/ha): 2 (Herbicidal rate of 20% or more and less than 40%) | herbicidal effect on D (Chinese sprangletop), rating 0-5 ([3]; 320 g/ha): 0 (Herbicidal rate of 5% or less (almost no effect)) | herbicidal effect grade, L: windgrass ([4]; 320 g/ha): 0 (Herbicidal rate of 5% or less (almost no effect)) | herbicidal effect grade, M: velvetleaf ([5]; 320 g/ha): 3 (Herbicidal rate of 40% or more and less than 70%) | herbicidal effect grade, O: lambsquarters ([6]; 320 g/ha): 0 (Herbicidal rate of 5% or less (almost no effect)) | herbicidal effect grade, Q: false cleavers ([7]; 320 g/ha): 0 (Herbicidal rate of 5% or less (almost no effect)) | herbicidal effect grade, N: redroot pigweed ([8]; 320 g/ha): 0 (Herbicidal rate of 5% or less (almost no effect)) | herbicidal effect grade, H: barnyard grass ([9]; 320 g/ha): 0 (Herbicidal rate of 5% or less (almost no effect)) | herbicidal effect on E (rice flat sedge), rating 0-5 ([10]; 320 g/ha): 0 (Herbicidal rate of 5% or less (almost no effect)) | herbicidal effect grade, G: green foxtail ([11]; 320 g/ha): 0 (Herbicidal rate of 5% or less (almost no effect)) | herbicidal effect grade, P: chickweed ([12]; 320 g/ha): 2 (Herbicidal rate of 20% or more and less than 40%) | herbicidal effect grade, J: blackgrass ([13]; 320 g/ha): 0 (Herbicidal rate of 5% or less (almost no effect)) | herbicidal effect grade, R: persian speedwell ([14]; 320 g/ha): 1 (Herbicidal rate of 5% or more and less than 20%) | herbicidal effect grade, I: wild oat ([15]; 320 g/ha): 0 (Herbicidal rate of 5% or less (almost no effect)) | herbicidal effect grade, F: southern crabgrass ([16]; 320 g/ha): 0 (Herbicidal rate of 5% or less (almost no effect))
